The term IC50 denotes the point on the concentration scale where inhibition reaches its midpoint. As a reminder, the Aqueous solubility is how much of the substance goes into solution per volume. A low value points to little dissolved substance. Usually melting point stands for the temperature of the solid-liquid transition. One may read the solubility as the concentration that dissolves in the medium under given conditions. A low value points to a poorly soluble substance.

The source of these data is article PMC8205030, “Methoxy and bromo scans on N-(5-methoxyphenyl) methoxybenzenesulphonamides reveal potent cytotoxic compounds, especially against the human breast adenocarcinoma MCF7 cell line” (Journal of Enzyme Inhibition and Medicinal Chemistry, 2021).

In series [1] the test system is HeLa (human cervical carcinoma) cells. As to the kind of experiment: Cell growth assay (XTT), HeLa. The settings on record: 72 h drug exposure, read-out: Antiproliferative activity IC50 HeLa. The class given is cell-based. As to the method:
(§1) The presence of mycoplasma was routinely checked with MycoAlert kit (Lonza-Cambrex) and only mycoplasma-free cells were used in the experiments. Tumour cell lines were kindly provided by Dr Faustino Mollinedo from Centro de Investigaciones Biológicas Margarita Salas, Madrid, Spain. To determine cell growth, cells in exponential growth phase were seeded (100 µL/well in 96-well plates) with appropriate cell concentration (1.5 × 10^4 cells/mL for MCF7, HeLa and HEK-293 and 3 × 10^4 cells/mL for HT-29) in complete DMEM or RPMI 1640 medium (see above) at 37 °C and 5% CO2 atmosphere. After 24 h incubation, to allow cells to attach to the plates, all compounds were added at 1 µM concentration (10 µL/well in 96-well plates) and the effect on the proliferation was evaluated 72 h post-treatment. Compounds showing antiproliferative effects at tested concentration were selected for IC50 calculation (50% inhibitory concentration compared to the untreated controls) from 10^−5 to 10^−10 M concentration. Nonlinear curves fitting the experimental data were carried out for each compound. […] A freshly prepared mixture solution of XTT labelling reagent with 0.02% (v/v) PMS (N-methyl-dibenzopyrazine methyl sulfate) electron coupling reagent was added to cells (50 µL/well in 96-well plates, the total volume of 160 µL/well) and were incubated during the corresponding time according to each cell line (4 h for MCF7 and HeLa and 6 h for HT-29 and HEK-293) in a humidified atmosphere (37 °C, 5% CO2). The absorbance of the formazan product generated was measured at a test wavelength of 450 nm using a multi-well plate reader (Ultra Evolution, Tecan, Männedorf, Suiza). Compounds were dissolved in DMSO and the final solvent concentrations never exceeded 0.5% (v/v). The control wells included treated cells with 0.5% (v/v) DMSO and the positive control. 10 µM verapamil was included as a control for the HT-29 cell line. Measurements were performed in triplicate, and each experiment was repeated three times.
On the technique in general: Tetrazolium dyes change colour on reduction, which living cells bring about.

Series [2] deals with HT-29 (human colon carcinoma) cells. As to the kind of experiment: Cell growth assay (XTT), HT-29, alone or with verapamil. It is filed as cell-based. The procedure:
as §1, with “Compounds showing antiproliferative effects at tested concentration were selected for IC50 calculation (50% inhibitory concentration compared to the untreated controls) from 10^−5 to 10^−10 M concentration.” left out

For series [3], the target named is T1, microtubular protein isolated from calf brain (Bos taurus, UniProt P81947+Q6B856).
T1 construct: isolated from calf brain according to the modified Shelanski method; from tissue; host or cells: calf brain
Kind of series: Inhibition of tubulin polymerisation (turbidity). The conditions noted are these: for TPI % 10 µM: 10 µM compound, 1.5 mg/mL microtubular protein; for IC50: in vitro tubulin polymerisation inhibition, read-out: TPI IC50. It is filed as biochemical. As to the method:
Microtubular protein was isolated from calf brain according to the modified Shelanski method[23]^,[24] by two cycles of temperature-dependent assembly/disassembly and stored at −80 °C. Before each use, protein concentration is determined by Bradford method[25] taking BSA as standard. Tubulin polymerisation was monitored using a Helios α spectrophotometer by measuring the increase in turbidity at 450 nm, caused by a shift from 4 °C to 37 °C, which allows the in vitro microtubular protein to depolymerise and to polymerise, respectively. The assay was carried out in quartz cuvettes containing 1.5 mg/mL microtubular protein and the ligand (except for control cuvette with only DMSO at the same concentration) in a mixture of 0.1 M MES buffer, 1 mM EGTA, 1 mM MgCl2, 1 mM β-ME, and 1.5 mM GTP at pH 6.7 (final volume 500 µL). Cuvettes were preincubated at 20 °C for 30 min, to allow ligand binding to tubulin, and subsequently cooled on ice for 10 min. Then, the experiment starts at 4 °C to establish the initial baseline. The assembly process was initiated by a temperature shift to 37 °C and the turbidity produced by tubulin polymerisation can be measured by an absorbance increase. After reaching a stable plateau, the temperature was switched back to 4 °C to return to the initial absorption values (to confirm the reversible nature of the monitored process and to determine whether or not the microtubular protein has stabilized). The difference in amplitude between the stable plateau and the initial baseline of the curves was taken as the degree of tubulin polymerisation for each experiment. […] All compounds were tested at 10 µM concentration. IC50 values were calculated for compounds that inhibit tubulin polymerisation more than 50% at 10 µM. […] All the measurements were carried out in at least two independent experiments using microtubular protein from different preparations.

Series [4] in a line: Aqueous solubility (saturation shake-flask, UV). The settings on record: pH 7.0 phosphate buffer, room temperature; for solubility at 48 h: aqueous buffer, thermodynamic from solid. The class given is physicochemical. The procedure: The aqueous solubility was determined in a Helios-α UV-320 Spectrophotometer Thermo-Spectronic, Thermo Fischer Scientific, Waltham, MA, USA) using an approach based on the saturation shake-flask method. 1–2 mg of each selected compound was suspended in 300 µL pH 7.0 buffer and stirred for 48 h at room temperature. The resulting mixture was filtered through a […] filter to discard the insoluble residues. A scan between 270 and 400 nm for the tested compound was performed and three wavelengths of maximum absorbance were selected. Calibration curves were performed at these wavelengths and the concentration in the supernatant was measured by UV absorbance. The final value was given as the average of the three measurements.

Series [5] relates to MCF7 (human breast carcinoma) cells. Kind of series: Cell growth assay (XTT), MCF7. The settings on record: Homo sapiens, MCF7; 72 h drug exposure, XTT; read-out: Antiproliferative activity IC50 MCF7. It is filed as cell-based. The procedure:
as §1

Setting [6] is: 72 h, in the presence of Pgp/MDR1 inhibitor verapamil (10 µM), read-out: Antiproliferative activity IC50 HT-29 Verap.
[7] abbreviates: Homo sapiens, HT-29, 72 h drug exposure, XTT, read-out: Antiproliferative activity IC50 HT-29.

Converted amounts (≈) assume the structure as drawn. Where two headings read alike, the source gives them in different places. Some results are limits rather than exact numbers.

T1 sequence (Q6B856 whole entry): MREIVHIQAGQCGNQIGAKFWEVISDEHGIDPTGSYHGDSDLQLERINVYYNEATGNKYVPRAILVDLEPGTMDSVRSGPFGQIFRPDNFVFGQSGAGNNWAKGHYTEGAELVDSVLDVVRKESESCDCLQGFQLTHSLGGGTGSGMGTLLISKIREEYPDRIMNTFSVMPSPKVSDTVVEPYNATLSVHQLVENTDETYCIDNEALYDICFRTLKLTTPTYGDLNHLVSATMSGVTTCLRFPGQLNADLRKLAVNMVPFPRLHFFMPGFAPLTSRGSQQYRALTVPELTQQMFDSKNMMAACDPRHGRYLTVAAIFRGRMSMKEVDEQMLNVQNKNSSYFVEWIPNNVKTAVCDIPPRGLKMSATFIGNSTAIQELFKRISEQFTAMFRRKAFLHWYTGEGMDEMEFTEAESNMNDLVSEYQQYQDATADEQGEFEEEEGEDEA
T1 sequence (P81947 whole entry): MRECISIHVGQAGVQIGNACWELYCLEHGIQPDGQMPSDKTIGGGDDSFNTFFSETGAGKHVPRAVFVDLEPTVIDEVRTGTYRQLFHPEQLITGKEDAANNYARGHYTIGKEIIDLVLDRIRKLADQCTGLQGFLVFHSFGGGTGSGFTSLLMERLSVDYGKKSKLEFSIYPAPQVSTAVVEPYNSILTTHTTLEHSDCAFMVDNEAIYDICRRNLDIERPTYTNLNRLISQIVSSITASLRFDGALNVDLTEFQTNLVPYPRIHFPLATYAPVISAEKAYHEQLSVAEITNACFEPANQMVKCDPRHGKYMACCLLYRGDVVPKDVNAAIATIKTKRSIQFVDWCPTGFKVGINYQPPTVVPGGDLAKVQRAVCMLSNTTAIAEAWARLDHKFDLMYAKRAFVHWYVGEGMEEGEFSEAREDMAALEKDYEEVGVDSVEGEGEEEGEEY

As for `COc1ccc(/C=C\c2cc(OC)c(OC)c(OC)c2)cc1O` [Combretastatin A-4, combretastatin A-4, reference compound], the half-inhibitory concentration (IC50) in series [1] was 2 nM; in series [2] (setting [6]), 327 nM; in series [2] (setting [7]) it was 305 nM; in series [5], 1 nM. Moreover, the “Difference of IC50 values HeLa vs HT-29” value in series [2] was over 100 fold. Further, in series [3], the “TPI % 10 µM” value came to 100%. In series [4] (48 h), the Aqueous solubility is listed as 1 µg/mL.

Compound `COc1ccc(S(=O)(=O)N(CC#N)c2cc(OC)cc(OC)c2)cc1` [Compound 4, N-(cyanomethyl)-N-(3,5-dimethoxyphenyl)-4-methoxybenzenesulphonamide] yielded a melting point of 92 to 96 °C. For the same compound, in series [1], the concentration for half-maximal inhibition (IC50) is over 1000 nM. Moreover, in series [2] (setting [7]), the IC50 is over 1000 nM. Further, in series [3], the “TPI % 10 µM” value is 0% and the IC50 is over 10 µM. Moreover, in series [5], the IC50 was over 1000 nM.

Turning to `COc1ccc(S(=O)(=O)N(Cc2ccccc2)c2cc(OC)cc(OC)c2)cc1` [Compound 6, N-benzyl-N-(3,5-dimethoxyphenyl)-4-methoxybenzenesulphonamide], the melting point was in the range of 146 to 150 °C. For the same compound, the 50% inhibitory concentration (IC50) in series [1] is over 1000 nM. Moreover, in series [2] (setting [7]), the IC50 is over 1000 nM. Also, in series [3], the “TPI % 10 µM” value was 0% and the IC50 was over 10 µM. In addition, in series [5], the concentration for half-maximal inhibition (IC50) is over 1000 nM.

Take `COc1ccc(S(=O)(=O)N(C(=O)OCc2ccccc2)c2cc(OC)cc(OC)c2)cc1` [Compound 7, Benzyl (3,5-dimethoxyphenyl)((4-methoxyphenyl)sulphonyl)carbamate]: the melting point lay within 129 to 131 °C. Also, the IC50 in series [1] is over 1000 nM. The IC50 in series [2] (setting [7]) was over 1000 nM. In series [3], the “TPI % 10 µM” value came to 0% and the concentration for half-maximal inhibition (IC50) was over 10 µM. Besides, the concentration for half-maximal inhibition (IC50) in series [5] was over 1000 nM.

Take `COc1ccc(S(=O)(=O)N(C)c2cc(OC)cc(OC)c2Br)cc1` [Compound 8b, N-(2-bromo-3,5-dimethoxyphenyl)-4-methoxy-N-methylbenzenesulphonamide]: the melting point is 156 to 160 °C. Besides, the 50% inhibitory concentration (IC50) in series [1] is over 1000 nM. In addition, the IC50 in series [2] (setting [7]) was over 1000 nM. In series [3], the “TPI % 10 µM” value is reported as 0% and the half-maximal inhibitory concentration (IC50) was over 10 µM. Further, in series [5], the IC50 was over 1000 nM.

`CCN(c1cc(OC)cc(OC)c1Br)S(=O)(=O)c1ccc(OC)cc1` [Compound 9b, N-(2-bromo-3,5-dimethoxyphenyl)-N-ethyl-4-methoxybenzenesulphonamide] gave a melting point of 141 to 144 °C. The half-maximal inhibitory concentration (IC50) in series [1] is over 1000 nM. The IC50 in series [2] (setting [7]) is over 1000 nM. Besides, in series [3], the “TPI % 10 µM” value was 0% and the IC50 was over 10 µM. Besides, the IC50 in series [5] is over 1000 nM.

As for `COc1ccc(S(=O)(=O)N(C)c2ccc(OC)c(OC)c2)cc1` [Compound 12, N-(3,4-dimethoxyphenyl)-4-methoxy-N-methylbenzenesulphonamide], the IC50 in series [1] was over 1000 nM; in series [2] (setting [7]), over 1000 nM; in series [3] it was over 10 µM; in series [5], over 1000 nM. Also, in series [3], the “TPI % 10 µM” value is listed as 0%. In series [4], this compound showed a solubility at 48 h of 70 µg/mL (≈ 207 µM).

As for `CCOC(=O)CN(c1cc(OC)c(OC)cc1Br)S(=O)(=O)c1ccc(OC)cc1` [Compound 17, Ethyl N-(2-bromo-4,5-dimethoxyphenyl)-N-((4-methoxyphenyl)sulphonyl)glycinate], the melting point fell in the range of 116 to 126 °C. Moreover, the half-inhibitory concentration (IC50) in series [1] is over 1000 nM. In addition, the IC50 in series [2] (setting [7]) is over 1000 nM. Also, in series [3], the “TPI % 10 µM” value is 0% and the IC50 is over 10 µM. In series [5], the half-maximal inhibitory concentration (IC50) is over 1000 nM.

Consider `COc1ccc(S(=O)(=O)N(Cc2ccccc2)c2cc(OC)c(OC)cc2Br)cc1` [Compound 18, N-benzyl-N-(2-bromo-4,5-dimethoxyphenyl)-4-methoxybenzenesulphonamide], for which the melting point was 114 to 120 °C. Also, the IC50 in series [1] is over 1000 nM. Further, the IC50 in series [2] (setting [7]) was over 1000 nM. In series [3], the “TPI % 10 µM” value came to 38% and the IC50 is over 10 µM. For the same compound, in series [5], the concentration for half-maximal inhibition (IC50) was over 1000 nM.

As for `COc1ccc(S(=O)(=O)N(CC(=O)O)c2cc(OC)c(Br)cc2OC)cc1` [Compound 29, N-(4-bromo-2,5-dimethoxyphenyl)-N-((4-methoxyphenyl)sulphonyl)glycine], the melting point is 180 to 184 °C. Moreover, the IC50 in series [1] is over 1000 nM. Besides, the half-inhibitory concentration (IC50) in series [2] (setting [7]) is over 1000 nM. Moreover, in series [3], the “TPI % 10 µM” value turned out to be 8% and the 50% inhibitory concentration (IC50) was over 10 µM. Besides, the half-inhibitory concentration (IC50) in series [5] was over 1000 nM.

For the compound `CCN(c1cc(OC)c(OC)cc1OC)S(=O)(=O)c1ccc(OC)cc1` [Compound 34, N-ethyl-4-methoxy-N-(2,4,5-trimethoxyphenyl)benzenesulphonamide], the IC50 is 313 nM in series [1]; 1070 nM in series [2] (setting [6]); 500 nM in series [2] (setting [7]); over 10 µM in series [3]; 715 nM in series [5]. Also, in series [3], the “TPI % 10 µM” value is recorded as 19%. In series [4], this compound showed a solubility at 48 h of 122 µg/mL (≈ 320 µM).

Compound `CCOC(=O)CN(c1cc(OC)c(OC)cc1OC)S(=O)(=O)c1ccc(OC)cc1` [Compound 36, Ethyl N-((4-methoxyphenyl)sulphonyl)-N-(2,4,5-trimethoxyphenyl)glycinate] showed a melting point of 127 to 132 °C. Further, the IC50 in series [1] was over 1000 nM. In addition, in series [2] (setting [7]), the IC50 is over 1000 nM. For the same compound, in series [3], the “TPI % 10 µM” value came out at 0% and the concentration for half-maximal inhibition (IC50) is over 10 µM. In series [5], the IC50 was over 1000 nM.
